The text below walks through data of patent US8754075B2, “1,3-oxazines as BACE1 and/or BACE2 inhibitors” (Hoffmann-La Roche Inc., priority 2011, dated 2014).

Experiment [1] addresses BACE2 (Rattus norvegicus (Rat), UniProt Q6IE75). As to the kind of experiment: Assay for BACE inhibition by measuring cellular TMEM27 cleavage. The following applies: INS-TMEM27 (INS1e rat cell line, inducible hTMEM27); shed TMEM27 by ELISA. It counts as cell-based. From the text: Assay for BACE Inhibition by Measuring Cellular TMEM27 Cleavage:
The assay uses the principle of inhibition of human TMEM27 cleavage by endogenous cellular BACE2 in the Ins1e rat cell line and shedding from the cell surface into the culture medium, followed by detection in an ELISA assay Inhibition of BACE2 prevents the cleavage and shedding in a dose-dependent manner.
The stable cell line “INS-TMEM27” represents an INS1e-derived cell line with inducible expression (using the TetOn system) of full-length hTMEM27 in a doxycycline-dependent manner. The cells are cultured throughout the experiment in RPMI1640+Glutamax (Invitrogen) Penicillin/Streptomycin, 10% Fetal bovine serum, […], […], 100 micrograms/ml G418 and 100 microgram/ml hygromycin and are grown inadherent culture at 37° C. in a standard CO2 cell culture incubator.
INS-TMEM27 cells are seeded in 96-well plates. After 2 days in culture, BACE2 inhibitor is added in a range of concentrations as required by the assay and after a further two hours, doxycycline is added to a final concentration of 500 ng/ml. The cells are incubated for a further 46 hours and the supernatant harvested for detection of shed TMEM27.
An ELISA assay (using a pair of mouse anti-human-TMEM27 antibodies, raised against the extracellular domain of TMEM27) is used for detection of TMEM27 in the culture medium. An EC50 for BACE2 inhibition is calculated using the ELISA readout for each inhibitor concentration with standard curve-fitting software such as XLFit for the Excel spreadsheet program.

For experiment [2], the target named is BACE1 (Homo sapiens (Human), UniProt P56817). As to the kind of experiment: Cellular Aβ-lowering assay. It counts as cell-based. The following applies: HEK293 cells stably expressing human APP wt (APP695); Aβ40 in supernatant by ELISA after 18-20 hrs. The method, then:
Cellular Aβ-Lowering Assay: Human HEK293 cells which are stably transfected with a vector expressing a cDNA of the human APP wt gene (APP695) were used to assess the potency of the compounds in a cellular assay. The cells were seeded in 96-well microtiter plates in cell culture medium (Iscove, plus 10% (v/v) fetal bovine serum, glutamine, penicillin/streptomycin) to about 80% confluence and the compounds were added at a 10× concentration in 1/10 volume of medium without FCS containing 8% DMSO (final concentration of DMSO was kept at 0.8% v/v). After 18-20 hrs incubation at 37° C. and 5% CO2 in a humidified incubator the culture supernatant was harvested for the determination of Aβ40 concentrations. […] After blocking of non-specific binding sites with e.g. 1% BSA and washing, the culture supernatants were added in suitable dilutions together with a horseradish peroxidase-coupled Aβ detection antibody (e.g., antibody 4G8, Senetek, Maryland Heights, Mo.) and incubated for 5 to 7 hrs. Subsequently the wells of the microtiter plate were washed extensively with Tris-buffered saline containing 0.05% Tween 20 and the assay was developed with tetramethylbenzidine/H2O2 in citric acid buffer. After stopping the reaction with one volume […] the reaction was measured in an ELISA reader at 450 nm wavelength. The concentrations of Aβ in the culture supernatants were calculated from a standard curve obtained with known amounts of pure Aβ peptide.

pIC50: −log10 of the molar value.

Chain of BACE1 (P56817 46-501): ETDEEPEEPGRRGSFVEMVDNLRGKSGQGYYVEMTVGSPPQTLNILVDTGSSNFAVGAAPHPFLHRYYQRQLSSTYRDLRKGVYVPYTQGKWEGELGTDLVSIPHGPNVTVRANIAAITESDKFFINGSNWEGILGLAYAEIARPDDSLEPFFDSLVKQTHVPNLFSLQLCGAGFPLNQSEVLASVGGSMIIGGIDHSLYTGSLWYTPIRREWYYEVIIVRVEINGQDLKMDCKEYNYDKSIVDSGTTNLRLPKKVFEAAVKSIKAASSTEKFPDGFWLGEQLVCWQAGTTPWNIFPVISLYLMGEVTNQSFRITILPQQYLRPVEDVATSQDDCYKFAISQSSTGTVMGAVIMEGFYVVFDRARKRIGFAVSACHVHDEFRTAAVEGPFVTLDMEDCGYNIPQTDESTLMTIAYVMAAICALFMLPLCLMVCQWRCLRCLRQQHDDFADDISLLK
Chain of BACE2 (Q6IE75 63-514): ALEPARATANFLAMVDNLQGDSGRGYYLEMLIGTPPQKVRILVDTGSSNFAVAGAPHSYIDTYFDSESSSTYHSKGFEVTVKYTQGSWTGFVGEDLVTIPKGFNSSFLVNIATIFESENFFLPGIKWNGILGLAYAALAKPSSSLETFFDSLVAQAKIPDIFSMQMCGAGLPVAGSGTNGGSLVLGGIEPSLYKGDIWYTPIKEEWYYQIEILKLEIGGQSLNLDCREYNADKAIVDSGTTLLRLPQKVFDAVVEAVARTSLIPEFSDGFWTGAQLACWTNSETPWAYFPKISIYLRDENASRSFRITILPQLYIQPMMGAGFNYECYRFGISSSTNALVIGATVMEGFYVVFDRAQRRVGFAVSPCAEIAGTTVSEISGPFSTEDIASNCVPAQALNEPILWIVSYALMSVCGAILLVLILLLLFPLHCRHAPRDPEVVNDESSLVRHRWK

With `C[C@]1(c2cc(NC(=O)c3ncc(C(F)(F)F)cc3Cl)ccc2F)N=C(N)OC[C@@H]1F` [Example 9, 3-Chloro-5-trifluoromethyl-pyridine-2-carboxylic acid [3-((4R,5R)-2-amino-5-fluoro-4-methyl-5,6-dihydro-4H-[1,3]oxazin-4-yl)-4-fluoro-phenyl]-amide], the pIC50 in experiment [1] is 6.91; in experiment [2], 8.70.
Take `C[C@]1(c2cc(NC(=O)c3ccc(Cl)cn3)ccc2F)N=C(N)OC[C@@H]1F` [Example 1, 5-Chloro-pyridine-2-carboxylic acid [3-((4R,5R)-2-amino-5-fluoro-4-methyl-5,6-dihydro-4H-[1,3]oxazin-4-yl)-4-fluoro-phenyl]-amide]: the results for the pIC50 in experiment [1] and in experiment [2] were 9.00 and 9.40, respectively.
The like results for `C[C@]1(F)COC(N)=N[C@]1(C)c1cc(NC(=O)c2ccc(F)cn2)ccc1F` [Example 42, 5-Fluoro-pyridine-2-carboxylic acid [3-((4R,5R)-2-amino-5-fluoro-4,5-dimethyl-5,6-dihydro-4H-[1,3]oxazin-4-yl)-4-fluoro-phenyl]-amide] were, in that order, 7.13 and 7.96.
For `C[C@]1(F)COC(N)=N[C@]1(C)c1cc(NC(=O)c2nn(C(F)F)cc2Cl)ccc1F` [Example 40, 4-Chloro-1-difluoromethyl-1H-pyrazole-3-carboxylic acid [3-((4R,5R)-2-amino-5-fluoro-4,5-dimethyl-5,6-dihydro-4H-[1,3]oxazin-4-yl)-4-fluoro-phenyl]amide], the values for the pIC50 in experiment [1] and in experiment [2] were 7.51 and 8.70, respectively.
With `C[C@]1(c2cc(NC(=O)c3ccc(Cl)cn3)ccc2F)N=C(N)OC[C@@H]1OCC(F)(F)F` [Example 45, 5-Chloro-pyridine-2-carboxylic acid {3-[(4R,5R)-2-amino-4-methyl-5-(2,2,2-trifluoro-ethoxy)-5,6-dihydro-4H-[1,3]oxazin-4-yl]-4-fluoro-phenyl}-amide], the results for the pIC50 in experiment [1] and in experiment [2] were 7.21 and 9.00, respectively.
For `C[C@]1(c2cc(NC(=O)c3ccc(C4CC4)cn3)ccc2F)N=C(N)OC[C@@H]1F` [Example 22, 5-Cyclopropyl-pyridine-2-carboxylic acid [3-((4R,5R)-2-amino-5-fluoro-4-methyl-5,6-dihydro-4H-[1,3]oxazin-4-yl)-4-fluoro-phenyl]-amide], the negative-log IC50 (pIC50) was 6.91 in experiment [1] and 7.85 in experiment [2].
`C[C@]1(c2cc(NC(=O)c3ncc(F)cc3F)ccc2F)N=C(N)OC[C@@H]1F` [Example 3, 3,5-Difluoro-pyridine-2-carboxylic acid [3-((4R,5R)-2-amino-5-fluoro-4-methyl-5,6-dihydro-4H-[1,3]oxazin-4-yl)-4-fluoro-phenyl]-amide]: the figures for the negative-log IC50 (pIC50) in experiment [1] and in experiment [2] were 8.15 and 9.00, respectively.
Consider `C[C@]1(c2cc(NC(=O)c3ncc(C#N)cc3Cl)ccc2F)N=C(N)OC[C@@H]1F` [Example 7, 3-Chloro-5-cyano-pyridine-2-carboxylic acid [3-((4R,5R)-2-amino-5-fluoro-4-methyl-5,6-dihydro-4H-[1,3]oxazin-4-yl)-4-fluoro-phenyl]-amide], for which the results for the negative logarithm of the IC50 (pIC50) in experiment [1] and in experiment [2] were 8.00 and 8.70, respectively.
Consider `C[C@]1(c2cc(NC(=O)c3ccc(F)cn3)ccc2F)N=C(N)OC[C@@H]1OCC(F)(F)F` [Example 46, 5-Fluoro-pyridine-2-carboxylic acid {3-[(4R,5R)-2-amino-4-methyl-5-(2,2,2-trifluoro-ethoxy)-5,6-dihydro-4H-[1,3]oxazin-4-yl]-4-fluoro-phenyl}-amide], for which the results for the negative-log IC50 (pIC50) in experiment [1] and in experiment [2] were 7.19 and 8.70, respectively.
On to `COc1ccc(C(=O)Nc2ccc(F)c([C@@]3(C)N=C(N)OC[C@@H]3F)c2)nc1` [Example 13, 5-Methoxy-pyridine-2-carboxylic acid [3-((4R,5R)-2-amino-5-fluoro-4-methyl-5,6-dihydro-4H-[1,3]oxazin-4-yl)-4-fluoro-phenyl]-amide], for which the pIC50 is 7.19 in experiment [1] and 8.40 in experiment [2].
In the case of `C[C@]1(c2cc(NC(=O)c3ccc(OCF)cn3)ccc2F)N=C(N)OC[C@@H]1F` [Example 5, 5-Fluoromethoxy-pyridine-2-carboxylic acid [3-((4R,5R)-2-amino-5-fluoro-4-methyl-5,6-dihydro-4H-[1,3]oxazin-4-yl)-4-fluoro-phenyl]], the figures for the pIC50 in experiment [1] and in experiment [2] were 6.97 and 9.00, respectively.
In the case of `C[C@]1(c2cc(NC(=O)c3ccc(C#N)cn3)ccc2F)N=C(N)OC[C@@H]1OCC(F)(F)F` [Example 47, 5-Cyano-pyridine-2-carboxylic acid {3-[(4R,5R)-2-amino-4-methyl-5-(2,2,2-trifluoro-ethoxy)-5,6-dihydro-4H-[1,3]oxazin-4-yl]-4-fluoro-phenyl}-amide], the pIC50 in experiment [1] is 6.57; in experiment [2], 9.00.
As to `C[C@]1(c2cc(NC(=O)c3cnc(Cl)s3)ccc2F)N=C(N)OC[C@@H]1F` [Example 26, 2-Chloro-thiazole-5-carboxylic acid [3-((4R,5R)-2-amino-5-fluoro-4-methyl-5,6-dihydro-4H-[1,3]oxazin-4-yl)-4-fluoro-phenyl]-amide], the figures for the negative logarithm of the IC50 (pIC50) in experiment [1] and in experiment [2] were 5.85 and 7.09, respectively.
As to `C[C@]1(F)COC(N)=N[C@]1(C)c1cc(NC(=O)c2nn(CC(F)F)cc2Cl)ccc1F` [Example 43, 4-Chloro-1-(2,2-difluoro-ethyl)-1H-pyrazole-3-carboxylic acid [3-((4R,5R)-2-amino-5-fluoro-4,5-dimethyl-5,6-dihydro-4H-[1,3]oxazin-4-yl)-4-fluoro-phenyl]amide], the figures for the pIC50 in experiment [1] and in experiment [2] were 6.96 and 6.74, respectively.
In the case of `C[C@]1(c2cc(NC(=O)c3cnc(OCC4CC4)cn3)ccc2F)N=C(N)OC[C@@H]1F` [Example 16, 5-Cyclopropylmethoxy-pyrazine-2-carboxylic acid [3-((4R,5R)-2-amino-5-fluoro-4-methyl-5,6-dihydro-4H-[1,3]oxazin-4-yl)-4-fluoro-phenyl]-amide], the pIC50 is 6.23 in experiment [1] and 8.30 in experiment [2].
Regarding `C[C@]1(F)COC(N)=N[C@]1(C)c1cc(NC(=O)c2ccc(Cl)cn2)ccc1F` [Example 41, 5-Chloro-pyridine-2-carboxylic acid [3-((4R,5R)-2-amino-5-fluoro-4,5-dimethyl-5,6-dihydro-4H-[1,3]oxazin-4-yl)-4-fluoro-phenyl]-amide], the negative logarithm of the IC50 (pIC50) in experiment [1] was 8.22; in experiment [2] it was 8.52.
Regarding `C[C@]1(c2cc(NC(=O)c3ncc(Cl)cc3F)ccc2F)N=C(N)OC[C@@H]1F` [Example 8, 5-Chloro-3-fluoro-pyridine-2-carboxylic acid [3-((4R,5R)-2-amino-5-fluoro-4-methyl-5,6-dihydro-4H-[1,3]oxazin-4-yl)-4-fluoro-phenyl]-amide], the negative-log IC50 (pIC50) in experiment [1] was 8.22; in experiment [2], 8.70.
As to `C[C@]1(c2cc(NC(=O)c3ccc(C(F)F)cn3)ccc2F)N=C(N)OC[C@@H]1F` [Example 11, 5-Difluoromethyl-pyridine-2-carboxylic acid [3-((4R,5R)-2-amino-5-fluoro-4-methyl-5,6-dihydro-4H-[1,3]oxazin-4-yl)-4-fluoro-phenyl]-amide], the figures for the pIC50 in experiment [1] and in experiment [2] were 9.00 and 8.52, respectively.
`C[C@]1(c2cc(NC(=O)c3ccc(OCC(F)(F)F)cn3)ccc2F)N=C(N)OC[C@@H]1F` [Example 17, 5-(2,2,2-Trifluoro-ethoxy)-pyridine-2-carboxylic acid [3-((4R,5R)-2-amino-5-fluoro-4-methyl-5,6-dihydro-4H-[1,3]oxazin-4-yl)-4-fluoro-phenyl]-amide]: the figures for the pIC50 in experiment [1] and in experiment [2] were 5.64 and 8.10, respectively.
For `C[C@]1(c2cc(NC(=O)c3ncc(Cl)cc3Cl)ccc2F)N=C(N)OC[C@@H]1OCC(F)(F)F` [Example 48, 3,5-Dichloro-pyridine-2-carboxylic acid {3-[(4R,5R)-2-amino-4-methyl-5-(2,2,2-trifluoro-ethoxy)-5,6-dihydro-4H-[1,3]oxazin-4-yl]-4-fluoro-phenyl}-amide], the negative logarithm of the IC50 (pIC50) in experiment [1] was 7.17; in experiment [2], 8.52.
